pIC50: −log10 of the molar value.
Tests used:
Assay in all cases: cells
HT-1376 = type: functional, cell-based; conditions: Homo sapiens
Description: SANGER: Inhibition of human HT-1376 cell growth in a cell viability assay.

G-402 = type: functional, cell-based; conditions: Homo sapiens
Description: SANGER: Inhibition of human G-402 cell growth in a cell viability assay.

SNU-387 = type: functional, cell-based; conditions: Homo sapiens
Description: SANGER: Inhibition of human SNU-387 cell growth in a cell viability assay.

CWR22R = type: functional, cell-based; conditions: Homo sapiens, 22Rv1;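 note: growth inhibition of 22Rv1 cells, read out with a cell viability assay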
Description: SANGER: Inhibition of human 22RV1 cell growth in a cell viability assay.

CAMA-1 = type: functional, cell-based; conditions: Homo sapiens;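 note: growth inhibition of CAMA-1 cells, read out with a cell viability assay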
Description: SANGER: Inhibition of human CAMA-1 cell growth in a cell viability assay.

HuO-3N1 = type: functional, cell-based; conditions: Homo sapiens;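 note: cell viability readout used to measure how strongly compounds suppress proliferation of human HuO-3N1 cells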
Description: SANGER: Inhibition of human HuO-3N1 cell growth in a cell viability assay.

NCI-H2342 = type: functional, cell-based; conditions: Homo sapiens;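 note: growth inhibition of the cancer cell line, determined with a cell viability assay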
Description: SANGER: Inhibition of human NCI-H2342 cell growth in a cell viability assay.

NCI-H2030 = type: functional, cell-based; conditions: Homo sapiens;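 note: growth inhibition of human NCI-H2030 cells, read out by a cell viability assay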
Description: SANGER: Inhibition of human NCI-H2030 cell growth in a cell viability assay.

SW1088 = type: functional, cell-based; conditions: Homo sapiens;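 note: growth inhibition of human SW1088 cells, read out by a cell viability assay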
Description: SANGER: Inhibition of human SW1088 cell growth in a cell viability assay.

SNU-423 = type: functional, cell-based; conditions: Homo sapiens
Description: SANGER: Inhibition of human SNU-423 cell growth in a cell viability assay.

G-361 = type: functional, cell-based; conditions: Homo sapiens
NCI-H1755 = type: functional, cell-based; conditions: Homo sapiens;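 note: cell viability readout used to measure growth inhibition of NCI-H1755 cells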
Description: SANGER: Inhibition of human NCI-H1755 cell growth in a cell viability assay.

SK-LU-1 = type: functional, cell-based; conditions: Homo sapiens;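 note: cell viability assay measuring growth inhibition of human SK-LU-1 cells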
Description: SANGER: Inhibition of human SK-LU-1 cell growth in a cell viability assay.

SCC-25 = type: functional, cell-based; conditions: Homo sapiens;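 note: growth inhibition of SCC-25 cells, measured with a cell viability assay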
Description: SANGER: Inhibition of human SCC-25 cell growth in a cell viability assay.

KYSE-270 = type: functional, cell-based; conditions: Homo sapiens;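 note: cell growth inhibition measured with a viability assay in the human KYSE-270 line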
Description: SANGER: Inhibition of human KYSE-270 cell growth in a cell viability assay.

CAPAN-1 = type: functional, cell-based; conditions: Homo sapiens;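 note: growth suppression of CAPAN-1 cells, read out by a cell viability assay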
Description: SANGER: Inhibition of human CAPAN-1 cell growth in a cell viability assay.

MDA-MB-231 = type: functional, cell-based; conditions: Homo sapiens
Description: SANGER: Inhibition of human MDA-MB-231 cell growth in a cell viability assay.

SK-MEL-28 = type: functional, cell-based; conditions: Homo sapiens;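 note: growth inhibition of human SK-MEL-28 cells, read out with a cell viability assay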
Description: SANGER: Inhibition of human SK-MEL-28 cell growth in a cell viability assay.

NB12 = type: functional, cell-based; conditions: Homo sapiens;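 note: growth inhibition of human NB12 cells, read out by a cell viability assay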
Description: SANGER: Inhibition of human NB12 cell growth in a cell viability assay.

HTC-C3 = type: functional, cell-based; conditions: Homo sapiens;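 note: inhibition of cell growth, read out with a cell viability assay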
Description: SANGER: Inhibition of human HTC-C3 cell growth in a cell viability assay.

ACHN = type: functional, cell-based; conditions: Homo sapiens;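 note: cell viability read-out used to gauge how strongly growth of human ACHN cells is suppressed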
Description: SANGER: Inhibition of human ACHN cell growth in a cell viability assay.

BXPC-3 = type: functional, cell-based; conditions: Homo sapiens;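 note: growth inhibition of human BxPC-3 cells, read out by a cell viability assay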
Description: SANGER: Inhibition of human BxPC-3 cell growth in a cell viability assay.

MKN-1 = type: functional, cell-based; conditions: Homo sapiens;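 note: growth inhibition of human MKN1 cells, read out by a cell viability measurement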
Description: SANGER: Inhibition of human MKN1 cell growth in a cell viability assay.

ESS-1 = type: functional, cell-based; conditions: Homo sapiens;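 note: growth inhibition of human ESS-1 cells, read out by a cell viability assay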
Description: SANGER: Inhibition of human ESS-1 cell growth in a cell viability assay.

SW13 = type: functional, cell-based; conditions: Homo sapiens;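 note: IC50 is inhibition of SW13 cell growth, read out with a cell viability assay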
Description: SANGER: Inhibition of human SW13 cell growth in a cell viability assay.

NCI-H810 = type: functional, cell-based; conditions: Homo sapiens;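 note: IC50 reflects inhibition of cancer cell line growth, read out with a cell viability assay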
Description: SANGER: Inhibition of human NCI-H810 cell growth in a cell viability assay.

DMS-273 = type: functional, cell-based; conditions: Homo sapiens
Description: SANGER: Inhibition of human DMS-273 cell growth in a cell viability assay.

Ca9-22 = type: functional, cell-based; conditions: Homo sapiens;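 note: growth inhibition of Ca9-22 cells, read out with a cell viability assay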
Description: SANGER: Inhibition of human Ca9-22 cell growth in a cell viability assay.

BHY = type: functional, cell-based; conditions: Homo sapiens;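 note: cell growth inhibition read out by a viability assay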
Description: SANGER: Inhibition of human BHY cell growth in a cell viability assay.

SW1783 = type: functional, cell-based; conditions: Homo sapiens;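 note: cell growth inhibition measured with a viability assay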
Description: SANGER: Inhibition of human SW1783 cell growth in a cell viability assay.

LoVo = type: functional, cell-based; conditions: Homo sapiens;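 note: growth inhibition of human LoVo cells, read out with a cell viability assay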
Description: SANGER: Inhibition of human LoVo cell growth in a cell viability assay.

SW1463 = type: functional, cell-based; conditions: Homo sapiens;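 note: growth inhibition of SW1463 cells, determined with a cell viability assay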
Description: SANGER: Inhibition of human SW1463 cell growth in a cell viability assay.

OAW-28 = type: functional, cell-based; conditions: Homo sapiens;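 note: growth inhibition of OAW-28 cells, read out with a cell viability assay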
Description: SANGER: Inhibition of human OAW-28 cell growth in a cell viability assay.

RD = type: functional, cell-based; conditions: Homo sapiens
Description: SANGER: Inhibition of human RD cell growth in a cell viability assay.

CHP-212 = type: functional, cell-based; conditions: Homo sapiens
Description: SANGER: Inhibition of human CHP-212 cell growth in a cell viability assay.

HSC-2 = type: functional, cell-based; conditions: Homo sapiens;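 note: growth inhibition of human HSC-2 cells, read out by a cell viability assay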
Description: SANGER: Inhibition of human HSC-2 cell growth in a cell viability assay.

MC-IXC = type: functional, cell-based; conditions: Homo sapiens;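 note: growth inhibition of MC-IXC cells, read out with a cell viability assay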
Description: SANGER: Inhibition of human MC-IXC cell growth in a cell viability assay.

ChaGo-K-1 = type: functional, cell-based; conditions: Homo sapiens;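 note: growth inhibition of ChaGo-K-1 cells, read out with a cell viability assay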
Description: SANGER: Inhibition of human ChaGo-K-1 cell growth in a cell viability assay.

NCI-H2228 = type: functional, cell-based; conditions: Homo sapiens;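 note: growth inhibition of human NCI-H2228 cells, read out by a cell viability assay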
Description: SANGER: Inhibition of human NCI-H2228 cell growth in a cell viability assay.

SW-620 = type: functional, cell-based; conditions: Homo sapiens;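 note: growth inhibition of human SW-620 cells, measured by a cell viability assay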
Description: SANGER: Inhibition of human SW620 cell growth in a cell viability assay.

LB373-MEL-D = type: functional, cell-based, Homo sapiens; conditions: Homo sapiens, LB373-MEL-D;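 note: growth inhibition of the cell line, read out in a cell viability assay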
Description: SANGER: Inhibition of human LB373-MEL-D cell growth in a cell viability assay.

MFH-ino = type: functional, cell-based, Homo sapiens; conditions: Homo sapiens, MFH-ino;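 note: growth inhibition of human MFH-ino cells, read out by a cell viability assay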
Description: SANGER: Inhibition of human MFH-ino cell growth in a cell viability assay.

COR-L105 = type: functional, cell-based; conditions: Homo sapiens;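 note: cell growth inhibition determined with a viability assay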
Description: SANGER: Inhibition of human COR-L105 cell growth in a cell viability assay.

HuTu80 = type: functional, cell-based, Homo sapiens, HUTU-80; conditions: Homo sapiens, HuTu80;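 note: growth inhibition of HuTu80 human cells, determined with a cell viability readout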
Description: SANGER: Inhibition of human HUTU-80 cell growth in a cell viability assay.

SK-HEP1 = type: functional, cell-based, SK-HEP-1; conditions: Homo sapiens;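 note: cell viability readout used to quantify reduction in proliferation of human SK-HEP-1 cells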
Description: SANGER: Inhibition of human SK-HEP-1 cell growth in a cell viability assay.

NCI-H650 = type: functional, cell-based; conditions: Homo sapiens;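 note: growth inhibition of NCI-H650 cells, read out by a viability assay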
Description: SANGER: Inhibition of human NCI-H650 cell growth in a cell viability assay.

MeWo = type: functional, cell-based; conditions: Homo sapiens;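 note: growth inhibition of MeWo cells, determined by a cell viability readout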
Description: SANGER: Inhibition of human Mewo cell growth in a cell viability assay.

OVCAR-5 = type: functional, cell-based; conditions: Homo sapiens;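 note: growth inhibition of human OVCAR-5 cells, read out with a cell viability assay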
Description: SANGER: Inhibition of human OVCAR-5 cell growth in a cell viability assay.

CAL-72 = type: functional, cell-based; conditions: Homo sapiens;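 note: cell viability assay measuring inhibition of proliferation in the CAL-72 cell line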
Description: SANGER: Inhibition of human CAL-72 cell growth in a cell viability assay.

WM-115 = type: functional, cell-based; conditions: Homo sapiens
Description: SANGER: Inhibition of human WM-115 cell growth in a cell viability assay.

Measured: pIC50

Cc1ccc(-n2nc(C(C)(C)C)cc2NC(=O)Nc2ccc(OCCN3CCOCC3)c3ccccc23)cc1 [DORAMAPIMOD]
< 5.00: all assays above

CN(NC(=O)CC(=O)NN(C)C(=S)c1ccccc1)C(=S)c1ccccc1 [ELESCLOMOL]
9.10: HuTu80
8.37: Ca9-22
8.02: SNU-387
8.14: MC-IXC
8.17: COR-L105
6.86: SW1783
7.64: SCC-25
8.15: DMS-273
7.62: HuO-3N1
7.36: NCI-H2342
7.43: KYSE-270
8.74: OVCAR-5
7.56: G-361
7.58: NCI-H2030 | MeWo
6.90: NCI-H810
8.13: CHP-212
7.47: WM-115
8.52: CAL-72
7.82: SNU-423
7.99: SK-LU-1
7.52: HTC-C3
8.11: SW13
6.97: BHY | HSC-2
7.44: NCI-H650
7.59: MKN-1
7.39: SW-620
7.72: MDA-MB-231
7.09: SW1088
7.95: CWR22R
7.79: G-402
7.10: SK-MEL-28 | LoVo
8.27: ChaGo-K-1
6.99: ESS-1
7.32: NB12
7.83: LB373-MEL-D
7.88: NCI-H1755 | RD
7.51: NCI-H2228
< 6.70: all other assays above

CC1=C(/C=C/C(C)=C/C=C/C(C)=C/C(=O)O)C(C)(C)CCC1 [TRETINOIN]
6.08: HuO-3N1
6.81: MC-IXC
< 5.00: all other assays above
